Values quoted from earlier work in patent publication US10736894B2, “Methods of treating developmental syndromes with PDE10A inhibitors” (Ovid Therapeutics Inc., priority 2018, dated 2020).

Columns and labels:
[1] = 100 mg dose
[2] = single dose 3-1000 mg, volunteers

SMILES: COc1cn(-c2ccc(-n3cccn3)cc2F)nc(-c2ccnn2-c2ccccc2)c1=O [1-[2-fluoro-4-(1H-pyrazol-1-yl)phenyl]-5-methoxy-3-(1-phenyl-1H-pyrazol-5-yl)-pyridazin-4(1H)-one]
- oral bioavailability ([1]; fed conditions versus fasting): increased oral bioavailability
- Tmax ([1]; fed conditions): 6 h
- deaths, serious adverse events, discontinuations due to adverse events (all dose cohorts 3-1000 mg): no deaths, serious adverse events, or discontinuations due to adverse events
- drug-related adverse event: orthostatic hypotension [2]: 9.1%
- drug-related adverse event: orthostatic tachycardia [2]: 19.7%
- drug-related adverse event: somnolence [2]: 33.3%
